Test results reported in the supplement of paper PMC10307832.

Legend:
Test in all cases: relative viability (nuclei count vs DMSO), 5 days (fraction); higher = more cells survive
Dasatinib + Decitabine = compound: Cc1nc(Nc2ncc(C(=O)Nc3c(C)cccc3Cl)s2)cc(N2CCN(CCO)CC2)n1 [Dasatinib] + Nc1ncn([C@H]2C[C@H](O)[C@@H](CO)O2)c(=O)n1 [Decitabine] (partner 2 µM)
In short: (§1)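 Lung cancer cell lines were pin-tool dosed in 1536-well plates on the day after seeding, with either a lone drug or a fixed anchor-drug dose plus five library-drug doses (not always all listed) in √10 steps. Nuclei were counted on 4× images after 5 days. Relative viability is the ratio of treated-well to vehicle-well nuclei counts, with each value a median of duplicate plates.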

Dasatinib + Olaparib = compound: Cc1nc(Nc2ncc(C(=O)Nc3c(C)cccc3Cl)s2)cc(N2CCN(CCO)CC2)n1 [Dasatinib] + O=C(c1cc(Cc2n[nH]c(=O)c3ccccc23)ccc1F)N1CCN(C(=O)C2CC2)CC1 [Olaparib] (partner 8 µM)
In short: as §1

ALW-II-49-7 + Bortezomib = compound: Cc1ccc(C(=O)Nc2cccc(C(F)(F)F)c2)cc1Nc1cncc(C(N)=O)c1 [ALW-II-49-7] + CC(C)C[C@H](NC(=O)[C@H](Cc1ccccc1)NC(=O)c1cnccn1)B(O)O [Bortezomib] (partner 0.002 µM)
In short: as §1

ALW-II-49-7 + Luminespib = compound: Cc1ccc(C(=O)Nc2cccc(C(F)(F)F)c2)cc1Nc1cncc(C(N)=O)c1 [ALW-II-49-7] + CCNC(=O)c1noc(-c2cc(C(C)C)c(O)cc2O)c1-c1ccc(CN2CCOCC2)cc1 [Luminespib] (partner 0.01 µM)
In short: as §1

| Cell Line | relative viability (Dasatinib + Decitabine; first compound 0.005 µM) | relative viability (Dasatinib + Decitabine; first compound 0.01581 µM) | relative viability (Dasatinib + Decitabine; first compound 0.05 µM) | relative viability (Dasatinib + Decitabine; first compound 0.1581 µM) | relative viability (Dasatinib + Decitabine; first compound 0.5 µM) | relative viability (Dasatinib + Olaparib; first compound 0.005 µM) | relative viability (Dasatinib + Olaparib; first compound 0.01581 µM) | relative viability (Dasatinib + Olaparib; first compound 0.05 µM) | relative viability (Dasatinib + Olaparib; first compound 0.1581 µM) | relative viability (Dasatinib + Olaparib; first compound 0.5 µM) | relative viability (ALW-II-49-7 + Bortezomib; first compound 0.08 µM) | relative viability (ALW-II-49-7 + Bortezomib; first compound 0.253 µM) | relative viability (ALW-II-49-7 + Bortezomib; first compound 0.8 µM) | relative viability (ALW-II-49-7 + Bortezomib; first compound 8 µM) | relative viability (ALW-II-49-7 + Luminespib; first compound 0.08 µM) | relative viability (ALW-II-49-7 + Luminespib; first compound 0.253 µM) | relative viability (ALW-II-49-7 + Luminespib; first compound 0.8 µM) | relative viability (ALW-II-49-7 + Luminespib; first compound 2.53 µM) | relative viability (ALW-II-49-7 + Luminespib; first compound 8 µM) | relative viability (ALW-II-49-7 + Bortezomib; first compound 2.53 µM) |
| --- | --- | --- | --- | --- | --- | --- | --- | --- | --- | --- | --- | --- | --- | --- | --- | --- | --- | --- | --- | --- |
| LCLC-97TM1 | 0.203 | 0.224 | 0.283 | 0.177 | 0.144 | 0.468 | 0.449 | 0.557 | 0.393 | 0.4 | 0.354 | 0.677 | 0.651 | 0.218 | 0.772 | 0.689 | 0.807 | 0.869 | 0.656 | – |
| NCI-H520 | 0.524 | 0.38 | 0.266 | 0.177 | 0.175 | 0.335 | 0.244 | 0.237 | 0.127 | 0.16 | 0.385 | 0.528 | – | 0.709 | 0.219 | 0.216 | 0.232 | 0.206 | 0.237 | 0.441 |
| NCI-H1993 | 0.503 | 0.477 | 0.67 | 0.456 | 0.407 | 1.08 | 1.13 | 1.23 | 0.895 | 0.794 | 1.14 | 1.19 | 1.01 | 1.33 | 0.701 | 0.705 | 0.95 | 0.793 | 1.14 | 1.13 |
| NCI-H1437 | 0.599 | 0.576 | 0.642 | 0.499 | 0.49 | 0.636 | 0.624 | 0.656 | 0.566 | 0.532 | 0.597 | 0.478 | – | 0.5 | 1.13 | 1.12 | 1.11 | 1.08 | 1.06 | 0.436 |
| LC-2-ad | 0.745 | 0.822 | 0.781 | 0.744 | 0.393 | 0.752 | 0.666 | 0.746 | 0.573 | 0.516 | 1.06 | 0.997 | 1.01 | 0.983 | 0.962 | 1.04 | 1.02 | 0.494 | 1 | 1.05 |
| HARA | 0.578 | 0.47 | 0.549 | 0.305 | 0.221 | 0.822 | 0.625 | 0.517 | 0.186 | 0.188 | 1.06 | 1.17 | 0.994 | 1.26 | 0.465 | 0.655 | 0.545 | 0.833 | 1.17 | 1.22 |
| NCI-H522 | 0.745 | 0.767 | 0.671 | 0.655 | 0.61 | 0.707 | 0.513 | 0.591 | 0.52 | 0.549 | – | – | – | – | 1.41 | 1.05 | 1.08 | 1.15 | 1.18 | – |
| NCI-H1563 | – | – | – | – | – | – | – | – | – | – | 0.922 | 0.885 | 0.877 | 0.753 | 0.531 | 0.487 | 0.503 | 0.495 | 0.457 | 0.842 |
| NCI-H1703 | – | – | – | – | – | 0.287 | 0.25 | 0.144 | 0.147 | 0.148 | 0.287 | 0.348 | 0.298 | 0.167 | – | – | – | – | – | 0.278 |
| SK-MES-1 | 0.409 | 0.364 | 0.265 | 0.169 | 0.136 | 0.766 | 0.794 | 0.56 | 0.214 | 0.151 | – | – | – | – | 0.591 | 0.797 | 0.8 | 0.864 | 0.719 | – |
| NCI-H1944 | 0.439 | 0.39 | 0.36 | 0.272 | 0.189 | 0.415 | 0.298 | 0.332 | 0.191 | 0.135 | – | – | – | – | 0.884 | 0.805 | 0.796 | 0.815 | 0.738 | – |
| HCC-78 | 0.615 | 0.608 | 0.599 | 0.429 | 0.326 | 0.596 | 0.649 | 0.639 | 0.577 | 0.243 | 0.463 | 0.434 | 0.405 | 0.491 | – | – | – | – | – | – |
| NCI-H2170 | 0.439 | 0.422 | 0.392 | 0.344 | 0.225 | 0.585 | 0.572 | 0.525 | 0.427 | 0.263 | – | – | – | – | 0.73 | 0.372 | 0.418 | 0.826 | 0.784 | – |
| NCI-H1648 | 0.494 | 0.477 | 0.506 | 0.457 | 0.241 | 0.73 | 0.612 | 0.855 | 0.314 | 0.221 | – | – | – | – | – | – | – | – | – | – |
| EBC-1 | – | – | – | – | – | 0.803 | 0.619 | 0.612 | 0.613 | 0.602 | 0.543 | 0.508 | 0.474 | 0.39 | – | – | – | – | – | 0.513 |
| NCI-H1395 | 0.73 | 0.669 | 0.694 | 0.57 | 0.326 | 0.431 | 0.46 | 0.376 | 0.355 | 0.311 | – | – | – | – | 0.754 | 0.796 | 0.823 | 0.716 | 0.706 | – |
| LK-2 | 0.265 | 0.308 | 0.174 | 0.159 | 0.174 | 0.674 | 0.609 | 0.57 | 0.278 | 0.229 | – | – | – | – | – | 0.184 | 0.174 | 0.205 | 0.185 | – |
| NCI-H1299 | – | – | – | – | – | 0.959 | 0.983 | 0.998 | 0.639 | 0.297 | 1.03 | 1.02 | 1.02 | 0.853 | – | – | – | – | – | 0.98 |
| A549 | 0.222 | 0.236 | 0.307 | 0.173 | 0.178 | 0.312 | 0.306 | 0.269 | 0.308 | 0.116 | – | – | – | – | – | – | – | – | – | – |
| NCI-H1793 | 0.504 | 0.427 | 0.295 | 0.328 | 0.323 | 0.69 | 0.404 | 0.385 | 0.367 | 0.521 | – | – | – | – | 0.146 | 0.197 | 0.195 | 0.177 | 0.175 | – |
| IA-LM | – | – | – | – | – | 1.06 | 0.537 | 0.904 | 0.706 | 0.6 | 1.12 | 0.621 | 0.509 | 0.161 | – | – | – | – | – | 0.217 |
